Experimental data: ChEMBL document CHEMBL1201862, “PubChem BioAssay data set” (2004)
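Interpolation was linear, between the two tested concentrations surrounding the appropriate level; five concentrations were tested over 48 hours in 96-well plates. GI50 is the concentration that inhibits growth by half.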 Activity calls are given as the source filed them. Rule as the data show it: active = GI50 up to about 1.1 µM and inactive = higher.

Columns and labels:
Assay in all cases: NCI anticancer screen, dose series, 48 h
COLO 205 = tested on: COLO 205
LOX IMVI = tested on: LOX IMVI
OVCAR-3 = tested on: OVCAR-3
KM12 = tested on: KM12
OVCAR-4 = tested on: OVCAR-4
A498 = tested on: A498
NCI/ADR-RES = tested on: NCI/ADR-RES
SF-268 = tested on: SF-268
MCF7 = tested on: MCF7
SK-OV-3 = tested on: SK-OV-3
A549 = tested on: A549
CAKI-1 = tested on: CAKI-1
SW-620 = tested on: SW-620
RPMI-8226 = tested on: RPMI-8226
Malme-3M = tested on: Malme-3M
SK-MEL-5 = tested on: SK-MEL-5
EKVX = tested on: EKVX
SK-MEL-2 = tested on: SK-MEL-2
HCT-116 = tested on: HCT-116
U-251 = tested on: U-251

Measured: GI50

CN1C(=O)C2(C)SC1(c1ccccc1)C1C(=O)N(c3ccccc3)C(=O)C12 (stereo not given)
inactive: COLO 205 67.9 µM | LOX IMVI > 100 µM | OVCAR-3 > 100 µM | KM12 66.1 µM | OVCAR-4 41.3 µM | A498 49.9 µM | NCI/ADR-RES 38.6 µM | SF-268 > 100 µM | MCF7 48.5 µM | SK-OV-3 > 100 µM | A549 49.8 µM | CAKI-1 > 100 µM | SW-620 > 100 µM | RPMI-8226 49.8 µM | Malme-3M > 100 µM | SK-MEL-5 97.7 µM | EKVX 98.9 µM | SK-MEL-2 75 µM | HCT-116 70.8 µM | U-251 67.9 µM

CN1CCC2(CC1)SC[C@H]1C(=O)N(c3ccc(Cl)cc3)C(=O)N12
inactive: COLO 205 > 100 µM | LOX IMVI > 100 µM | OVCAR-3 > 100 µM | KM12 > 100 µM | OVCAR-4 > 100 µM | A498 24.2 µM | NCI/ADR-RES > 100 µM | SF-268 > 100 µM | MCF7 > 100 µM | SK-OV-3 > 100 µM | A549 > 100 µM | CAKI-1 > 100 µM | SW-620 > 100 µM | RPMI-8226 > 100 µM | Malme-3M > 100 µM | SK-MEL-5 > 100 µM | EKVX > 100 µM | SK-MEL-2 > 100 µM | HCT-116 > 100 µM | U-251 > 100 µM

O=[N+]([O-])c1cc(C(F)(F)F)cc2c1SC1=Nc3ccccc3CN12
inactive: COLO 205 > 100 µM | LOX IMVI > 100 µM | OVCAR-3 > 100 µM | KM12 > 100 µM | OVCAR-4 > 100 µM | A498 > 100 µM | NCI/ADR-RES > 100 µM | SF-268 > 100 µM | MCF7 > 100 µM | SK-OV-3 > 100 µM | A549 > 100 µM | CAKI-1 > 100 µM | SW-620 > 100 µM | RPMI-8226 > 100 µM | Malme-3M > 100 µM | SK-MEL-5 > 100 µM | EKVX > 100 µM | SK-MEL-2 > 100 µM | HCT-116 > 100 µM | U-251 > 100 µM

CN(C)CC1CN=C(N)O1 (stereo not given)
inactive: COLO 205 > 100 µM | LOX IMVI > 100 µM | OVCAR-3 > 100 µM | KM12 > 100 µM | OVCAR-4 > 100 µM | A498 > 100 µM | NCI/ADR-RES > 100 µM | SF-268 > 100 µM | MCF7 > 100 µM | SK-OV-3 > 100 µM | A549 > 100 µM | CAKI-1 > 100 µM | SW-620 > 100 µM | RPMI-8226 > 100 µM | Malme-3M > 100 µM | SK-MEL-5 > 100 µM | EKVX > 100 µM | SK-MEL-2 > 100 µM | HCT-116 > 100 µM | U-251 > 100 µM
